How the values were obtained:
Assay type in all cases: in vivo
rice (Oryra sativa) = assay: Test B flooded paddy test; conditions: Flood, 250 g ai/ha; 0 to 100 scale where 0 is no effect and 100 is complete control; 13 to 15 d
How it was run: (§1)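 2-leaf plants; pots flooded 3 cm over soil; cpd added to paddy water; depth held; greenhouse 13–15 d; visual rating vs controls, 0 = no effect, 100 = complete control.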

[1] = system: barnyardgrass (Echinochloa crus-galli); assay: Test B flooded paddy test; conditions: Flood, 250 g ai/ha; 0 to 100 scale where 0 is no effect and 100 is complete control; 13 to 15 d
How it was run: as §1

[2] = system: sedge, umbrella (small-flower umbrella sedge, Cyperus difformis); assay: Test B flooded paddy test; conditions: Flood, 250 g ai/ha; 0 to 100 scale where 0 is no effect and 100 is complete control; 13 to 15 d
How it was run: as §1

[3] = system: ducksalad (Heteranthera limosa); assay: Test B flooded paddy test; conditions: Flood, 250 g ai/ha; 0 to 100 scale where 0 is no effect and 100 is complete control; 13 to 15 d
How it was run: as §1

[4] = system: barnyardgrass (Echinochloa crus-galli); assay: Test A postemergence
How it was run: (§2)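 In a loam soil and sand blend, planted seeds got a preemergence directed soil spray, and young plants at the one- to two-leaf stage, 2–10 cm high, got a postemergence application; ~10 d greenhouse hold; injury rated visually, 0 = none, 100 = complete control.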

[5] = system: blackgrass (Alopecurus myosuroides); assay: Test A postemergence
How it was run: as §2

[6] = system: giant foxtail (Setaria faberii); assay: Test A postemergence
How it was run: as §2

[7] = system: pigweed (Amaranthus retroflexus); assay: Test A postemergence
How it was run: as §2

[8] = system: ryegrass, Italian (Italian ryegrass, Lolium multiflorum); assay: Test A postemergence
How it was run: as §2

corn (Zea mays) = assay: Test A postemergence
How it was run: as §2

[9] = system: Galium (catchweed bedstraw, Galium aparine); assay: Test A postemergence
How it was run: as §2

Kochia (Kochia scoparia) [10] = assay: Test A postemergence
How it was run: as §2

[11] = system: wheat (Triticum aestivum); assay: Test A postemergence
How it was run: as §2

[12] = system: ragweed (common ragweed, Ambrosia elatior); assay: Test A postemergence
How it was run: as §2

[13] = system: barnyardgrass (Echinochloa crus-galli); assay: Test A preemergence; conditions: Preemergence; for Plant response rating, Barnyardgrass: 125 g ai/ha, visual injury after approximately 10 d, 0 to 100 scale where 0 is no effect and 100 is complete control; for Barnyardgrass plant response rating (0 to 100 scale, 0 is no effect, 100 is complete control): 500 g ai/ha, visual injury approx. 10 d
How it was run: as §2

[14] = system: giant foxtail (Setaria faberii); assay: Test A preemergence; conditions: Preemergence; for Plant response rating, Foxtail, Giant: 125 g ai/ha, visual injury after approximately 10 d, 0 to 100 scale where 0 is no effect and 100 is complete control; for Foxtail, Giant plant response rating (0 to 100 scale, 0 is no effect, 100 is complete control): 500 g ai/ha, visual injury approx. 10 d
How it was run: as §2

[15] = system: pigweed (Amaranthus retroflexus); assay: Test A preemergence; conditions: Preemergence; for Plant response rating, Pigweed: 125 g ai/ha, visual injury after approximately 10 d, 0 to 100 scale where 0 is no effect and 100 is complete control; for Pigweed plant response rating (0 to 100 scale, 0 is no effect, 100 is complete control): 500 g ai/ha, visual injury approx. 10 d
[16] = system: ryegrass, Italian (Italian ryegrass, Lolium multiflorum); assay: Test A preemergence; conditions: Preemergence; for Plant response rating, Ryegrass, Italian: 125 g ai/ha, visual injury after approximately 10 d, 0 to 100 scale where 0 is no effect and 100 is complete control; for Ryegrass, Italian plant response rating (0 to 100 scale, 0 is no effect, 100 is complete control): 500 g ai/ha, visual injury approx. 10 d
How it was run: as §2

Kochia (Kochia scoparia) [17] = assay: Test A preemergence; conditions: Preemergence; for Plant response rating, Kochia: 125 g ai/ha, visual injury after approximately 10 d, 0 to 100 scale where 0 is no effect and 100 is complete control; for Kochia plant response rating (0 to 100 scale, 0 is no effect, 100 is complete control): 500 g ai/ha, visual injury approx. 10 d
How it was run: as §2

[18] = system: ragweed (common ragweed, Ambrosia elatior); assay: Test A preemergence; conditions: Preemergence; for Plant response rating, Ragweed: 125 g ai/ha, visual injury after approximately 10 d, 0 to 100 scale where 0 is no effect and 100 is complete control; for Ragweed plant response rating (0 to 100 scale, 0 is no effect, 100 is complete control): 500 g ai/ha, visual injury approx. 10 d
How it was run: as §2

[19] = 125 g ai/ha, postemergence, visual rating after approx. 10 d, 0 to 100 scale (0 no effect, 100 complete control)
[20] = Postemergence, 500 g ai/ha, 0 to 100 scale where 0 is no effect and 100 is complete control

O=C1NCC(c2cc(C(F)(F)F)cc(C(F)(F)F)c2)C1C(=O)Nc1cccc(F)c1F (stereo not drawn) [Compound 588]
20: Plant response rating, Blackgrass [5, 19] | Plant response rating, Pigweed [7, 19]
90: Plant response rating, Barnyardgrass [13] | Barnyardgrass plant response rating (0 to 100 scale, 0 is no effect, 100 is complete control) [13] | Plant response rating, Foxtail, Giant [14] | Foxtail, Giant plant response rating (0 to 100 scale, 0 is no effect, 100 is complete control) [14]
0: Plant response rating, Sedge, Umbrella [2] | Plant response rating, Ryegrass, Italian [8, 19] | Plant response rating, Corn (corn (Zea mays); [19]) | Plant response rating, Galium [9, 19] | Plant response rating, Kochia (Kochia (Kochia scoparia) [10]; [19]) | Plant response rating, Wheat [11, 19] | Plant response rating, Ragweed [12, 19] | Plant response rating, Pigweed [15] | Pigweed plant response rating (0 to 100 scale, 0 is no effect, 100 is complete control) [15] | Plant response rating, Kochia (Kochia (Kochia scoparia) [17]) | Kochia plant response rating (0 to 100 scale, 0 is no effect, 100 is complete control) (Kochia (Kochia scoparia) [17]) | Plant response rating, Ragweed [18] | Ragweed plant response rating (0 to 100 scale, 0 is no effect, 100 is complete control) [18]
40: Plant response rating, Pigweed [7, 20] | Plant response rating, Wheat [11, 20]
70: Plant response rating, Ducksalad [3] | Plant response rating, Corn (corn (Zea mays); [20]) | Plant response rating, Kochia (Kochia (Kochia scoparia) [10]; [20])
80: Plant response rating, Barnyardgrass [4, 19] | Plant response rating, Barnyardgrass [4, 20] | Plant response rating, Foxtail, Giant [6, 19] | Plant response rating, Foxtail, Giant [6, 20] | Plant response rating, Ryegrass, Italian [16]
30: Plant response rating, Rice (rice (Oryra sativa)) | Plant response rating, Barnyardgrass [1] | Plant response rating, Galium [9, 20]
50: Plant response rating, Blackgrass [5, 20] | Plant response rating, Ryegrass, Italian [8, 20] | Plant response rating, Ragweed [12, 20] | Ryegrass, Italian plant response rating (0 to 100 scale, 0 is no effect, 100 is complete control) [16]

O=C1NCC(c2cccc(C(F)(F)F)c2F)C1C(=O)Nc1ccc(F)cc1F (stereo not drawn) [Compound 592]
50: Plant response rating, Corn (corn (Zea mays); [19]) | Ryegrass, Italian plant response rating (0 to 100 scale, 0 is no effect, 100 is complete control) [16]
90: Plant response rating, Barnyardgrass [4, 20] | Plant response rating, Foxtail, Giant [6, 20] | Plant response rating, Barnyardgrass [13] | Barnyardgrass plant response rating (0 to 100 scale, 0 is no effect, 100 is complete control) [13] | Plant response rating, Foxtail, Giant [14] | Foxtail, Giant plant response rating (0 to 100 scale, 0 is no effect, 100 is complete control) [14]
80: Plant response rating, Ducksalad [3] | Plant response rating, Barnyardgrass [4, 19] | Plant response rating, Foxtail, Giant [6, 19]
55: Plant response rating, Barnyardgrass [1]
30: Plant response rating, Blackgrass [5, 19] | Plant response rating, Galium [9, 20] | Plant response rating, Wheat [11, 19] | Kochia plant response rating (0 to 100 scale, 0 is no effect, 100 is complete control) (Kochia (Kochia scoparia) [17])
60: Plant response rating, Blackgrass [5, 20]
40: Plant response rating, Kochia (Kochia (Kochia scoparia) [10]; [20])
70: Plant response rating, Corn (corn (Zea mays); [20]) | Plant response rating, Wheat [11, 20]
20: Plant response rating, Galium [9, 19] | Ragweed plant response rating (0 to 100 scale, 0 is no effect, 100 is complete control) [18]
0: Plant response rating, Rice (rice (Oryra sativa)) | Plant response rating, Sedge, Umbrella [2] | Plant response rating, Pigweed [7, 19] | Plant response rating, Pigweed [7, 20] | Plant response rating, Ryegrass, Italian [8, 19] | Plant response rating, Ryegrass, Italian [8, 20] | Plant response rating, Kochia (Kochia (Kochia scoparia) [10]; [19]) | Plant response rating, Ragweed [12, 19] | Plant response rating, Ragweed [12, 20] | Plant response rating, Pigweed [15] | Pigweed plant response rating (0 to 100 scale, 0 is no effect, 100 is complete control) [15] | Plant response rating, Ryegrass, Italian [16] | Plant response rating, Kochia (Kochia (Kochia scoparia) [17]) | Plant response rating, Ragweed [18]

O=C1NCC(c2ccsc2Br)C1C(=O)Nc1cccc(F)c1F (stereo not drawn) [Compound 598]
20: Plant response rating, Foxtail, Giant [6, 20] | Plant response rating, Kochia (Kochia (Kochia scoparia) [10]; [20]) | Plant response rating, Ragweed [12, 20] | Ryegrass, Italian plant response rating (0 to 100 scale, 0 is no effect, 100 is complete control) [16]
60: Barnyardgrass plant response rating (0 to 100 scale, 0 is no effect, 100 is complete control) [13] | Foxtail, Giant plant response rating (0 to 100 scale, 0 is no effect, 100 is complete control) [14]
0: Plant response rating, Rice (rice (Oryra sativa)) | Plant response rating, Barnyardgrass [1] | Plant response rating, Sedge, Umbrella [2] | Plant response rating, Blackgrass [5, 19] | Plant response rating, Blackgrass [5, 20] | Plant response rating, Foxtail, Giant [6, 19] | Plant response rating, Pigweed [7, 19] | Plant response rating, Pigweed [7, 20] | Plant response rating, Ryegrass, Italian [8, 19] | Plant response rating, Ryegrass, Italian [8, 20] | Plant response rating, Corn (corn (Zea mays); [19]) | Plant response rating, Corn (corn (Zea mays); [20]) | Plant response rating, Galium [9, 19] | Plant response rating, Kochia (Kochia (Kochia scoparia) [10]; [19]) | Plant response rating, Wheat [11, 19] | Plant response rating, Wheat [11, 20] | Plant response rating, Ragweed [12, 19] | Plant response rating, Barnyardgrass [13] | Plant response rating, Foxtail, Giant [14] | Plant response rating, Pigweed [15] | Pigweed plant response rating (0 to 100 scale, 0 is no effect, 100 is complete control) [15] | Plant response rating, Ryegrass, Italian [16] | Plant response rating, Kochia (Kochia (Kochia scoparia) [17]) | Kochia plant response rating (0 to 100 scale, 0 is no effect, 100 is complete control) (Kochia (Kochia scoparia) [17]) | Plant response rating, Ragweed [18] | Ragweed plant response rating (0 to 100 scale, 0 is no effect, 100 is complete control) [18]
30: Plant response rating, Galium [9, 20]
10: Plant response rating, Barnyardgrass [4, 19]
80: Plant response rating, Barnyardgrass [4, 20]
65: Plant response rating, Ducksalad [3]

From patent publication US12077503B2, “Substituted cyclic amides and their use as herbicides” (FMC CORPORATION, priority 2015, dated 2024)
